Molecular target: T1, Aromatase (Homo sapiens, UniProt P11511)
T1 sequence (P11511 whole entry): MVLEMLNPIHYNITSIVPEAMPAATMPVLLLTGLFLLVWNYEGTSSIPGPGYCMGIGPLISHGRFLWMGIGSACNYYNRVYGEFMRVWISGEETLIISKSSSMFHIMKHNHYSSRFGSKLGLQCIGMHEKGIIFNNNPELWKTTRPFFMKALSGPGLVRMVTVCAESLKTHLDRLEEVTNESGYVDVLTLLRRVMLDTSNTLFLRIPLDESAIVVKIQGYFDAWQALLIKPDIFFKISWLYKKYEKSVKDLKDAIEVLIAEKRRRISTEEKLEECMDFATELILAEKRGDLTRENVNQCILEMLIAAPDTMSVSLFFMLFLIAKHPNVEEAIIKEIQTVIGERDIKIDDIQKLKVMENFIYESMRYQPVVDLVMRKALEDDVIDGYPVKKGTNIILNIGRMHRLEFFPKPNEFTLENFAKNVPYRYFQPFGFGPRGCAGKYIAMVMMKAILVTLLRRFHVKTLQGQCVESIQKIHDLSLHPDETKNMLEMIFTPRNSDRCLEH
Description: Inhibition of recombinant human CYP19A1 using DBF as substrate measured after 1 hr by fluorescence assay

Structure (SMILES) | Ki [nM]
Clc1ccc(/C=C(\Cn2ccnn2)c2ccc(Cl)cc2)cc1 | 8
Brc1ccc(/C=C(\Cn2ccnn2)c2ccc(Br)cc2)cc1 | 24
Clc1ccc(/C=C(/Cn2ccnn2)c2ccc(Cl)cc2)cc1 | 97
Brc1ccc(/C=C(/Cn2ccnn2)c2ccc(Br)cc2)cc1 | 450
Clc1ccc(/C(=C\c2ccccc2)Cn2ccnn2)cc1 | 81
Brc1ccc(/C(=C/c2ccccc2)Cn2ccnn2)cc1 | 74
C(=C(\Cn1cncn1)c1ccccc1)/c1ccccc1 | 79
C(=C(/Cn1cncn1)c1ccccc1)/c1ccccc1 | 32
Clc1ccc(/C(=C/c2ccccc2)Cn2ccnn2)cc1 | 57
Brc1ccc(/C(=C\c2ccccc2)Cn2ccnn2)cc1 | 125
c1ccc(CC(Cn2ccnn2)c2ccccc2)cc1 (stereo unspecified) | 290

Source: ChEMBL document CHEMBL4339204, “Synthesis of α-methylstilbenes using an aqueous Wittig methodology and application toward the development of potent human aromatase inhibitors” (Bioorg Med Chem Lett, 2019)
